Measured values taken from patent US6825230B2, “Spiro and dispiro 1,2,4-trixolane antimalarials” (Medicines for Malaria Venture MMV, priority 2002, dated 2004).
≈ marks a conversion by molar mass, not a printed value. Counter-ions that a name gives are not always drawn. Like-named read-outs stand apart in the source and are kept apart here.

Columns and labels:
[1] = system: chloroquine-sensitive NF54 strain of P. falciparum; test: In vitro antimalarial semiautomated microdilution assay ([3H]-hypoxanthine incorporation), NF54 strain; assay type: cell-based, Plasmodium falciparum; settings: for IC50: Plasmodium falciparum
In short: (§1)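 Semiautomated microdilution against intraerythrocytic P. falciparum from asynchronous stock cultures, with growth tracked by [3H]-hypoxanthine incorporation. IC50 values were estimated by Logit regression analysis.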

[2] = system: chloroquine-resistant K1 strain of P. falciparum; test: In vitro antimalarial semiautomated microdilution assay ([3H]-hypoxanthine incorporation), K1 strain; assay type: cell-based, Plasmodium falciparum; settings: for IC50: Plasmodium falciparum
In short: as §1

[3] = system: ANKA strain of P. berghei; test: Single dose STI in vivo screen in infected mice; parameters: species or system Plasmodium berghei; settings: for Survival (days) 10 mg/kg po: single 10 mg/kg po in 3% ethanol and 7% Tween 80; for Survival (days) 10 mg/kg po / Survival (days) 10 mg/kg SSV po / Survival (days) 10 mg/kg sc: untreated 6-7 days; for Activity (%) 10 mg/kg po: single 10 mg/kg po in 3% ethanol and 7% Tween 80 on day 1 post-infection; for Activity (%) 10 mg/kg po / Activity (%) 10 mg/kg SSV po / Activity (%) 10 mg/kg sc: percent reduction in parasitemia on day 3; for Survival (days) 10 mg/kg SSV po: single 10 mg/kg po in SSV; for Activity (%) 10 mg/kg SSV po: single 10 mg/kg po in standard suspending vehicle (SSV) on day 1 post-infection; for Survival (days) 10 mg/kg sc: single 10 mg/kg sc in 3% ethanol and 7% Tween 80; for Activity (%) 10 mg/kg sc: single 10 mg/kg sc in 3% ethanol and 7% Tween 80 on day 1 post-infection
[4] = NF54, 72 h, read-out: IC50 (ng/ml) NF54, chloroquine-sensitive NF54 strain, 72 h incubation
[5] = K1, 72 h, read-out: IC50 (ng/ml) K1, chloroquine-resistant K1 strain, 72 h incubation

| SMILES | IC50 ([1]; chloroquine-sensitive NF54 strain, 72 h incubation, read-out: IC50 (ng/ml) NF54) [ng/mL] | IC50 ([2]; chloroquine-resistant K1 strain, 72 h incubation, read-out: IC50 (ng/ml) K1) [ng/mL] | Survival (days) 10 mg/kg po [3] [days] | Activity (%) 10 mg/kg po [3] [%] | Survival (days) 10 mg/kg SSV po [3] [days] | Activity (%) 10 mg/kg SSV po [3] [%] | Survival (days) 10 mg/kg sc [3] [days] | Activity (%) 10 mg/kg sc [3] [%] | IC50 [1, 4] [ng/mL] | IC50 [2, 5] [ng/mL] | IC50 (ng/ml) NF54 ([1]; chloroquine-sensitive NF54 strain, 72 h incubation, hydrochloride) [ng/mL] | IC50 (ng/ml) K1 ([2]; chloroquine-resistant K1 strain, 72 h incubation, hydrochloride) [ng/mL] | Survival (days) 10 mg/kg po ([3]; hydrochloride, 10 mg/kg) [days] | Activity (%) 10 mg/kg po ([3]; hydrochloride, 10 mg/kg) [%] | Survival (days) 10 mg/kg SSV po ([3]; hydrochloride, 10 mg/kg) [days] | Activity (%) 10 mg/kg SSV po ([3]; hydrochloride, 10 mg/kg) [%] | Survival (days) 10 mg/kg sc ([3]; hydrochloride, 10 mg/kg) [days] | Activity (%) 10 mg/kg sc ([3]; hydrochloride, 10 mg/kg) [%] |
| --- | --- | --- | --- | --- | --- | --- | --- | --- | --- | --- | --- | --- | --- | --- | --- | --- | --- | --- |
| O=C1OC2(CCC3(CC2)OOC2(O3)C3CC4CC(C3)CC2C4)c2ccccc21 (stereo not drawn) [OZ149, Adamantane-2-spiro-3′-1′,2′,4′-trioxaspiro[4.5]decane-8′-spiro-1″-3″-oxo-3″H-isobenzofuran] | 8.8 (≈ 0.023 µM) | 8 (≈ 0.0209 µM) | 7.7 | 64 | 6.0 | 3 | 14.3 | 87 | – | – | – | – | – | – | – | – | – | – |
| O=C(NCCO)[C@H]1CC[C@]2(CC1)OOC1(O2)C2CC3CC(C2)CC1C3 (stereo partly drawn) [OZ155] | – | – | 6.3 | 53 | 7.0 | 53 | 8.3 | 73 | > 10 | 12 (≈ 0.0341 µM) | – | – | – | – | – | – | – | – |
| C(CNC1CCC2(CC1)OOC1(O2)C2CC3CC(C2)CC1C3)CN1CCOCC1 (stereo not drawn) [OZ161] | – | – | 7.0 | 59 | 6.7 | 46 | 12.7 | 99.96 | 0.5 (≈ 0.00123 µM) | 0.4 (≈ 0.000984 µM) | – | – | – | – | – | – | – | – |
| CCOC(=O)c1ccc([C@H]2CC[C@]3(CC2)OOC2(O3)C3CC4CC(C3)CC2C4)cc1 (stereo partly drawn) [OZ164] | – | – | – | 11 | 5.7 | 0 | – | 7 | > 10 | 9 (≈ 0.0218 µM) | – | – | – | – | – | – | – | – |
| O=C(O)c1ccc([C@H]2CC[C@]3(CC2)OOC2(O3)C3CC4CC(C3)CC2C4)cc1 (stereo partly drawn) [OZ165] | – | – | 6.3 | 18 | 6.0 | 3 | 5.7 | 9 | > 10 | 39 (≈ 0.101 µM) | – | – | – | – | – | – | – | – |
| CCOC(=O)c1ccc(OC[C@H]2CC[C@]3(CC2)OOC2(O3)C3CC4CC(C3)CC2C4)cc1 (stereo partly drawn) [OZ166] | – | – | 6.7 | 11 | 6.3 | 0 | 5.7 | 4 | > 10 | 28 (≈ 0.0633 µM) | – | – | – | – | – | – | – | – |
| O=C1c2ccccc2C(=O)N1C[C@H]1CC[C@@]2(CC1)OOC1(O2)C2CC3CC(C2)CC1C3 (stereo partly drawn) [OZ167] | – | – | 6.0 | 0 | 6.0 | 6 | 7.3 | 97 | > 10 | 6.7 (≈ 0.0158 µM) | – | – | – | – | – | – | – | – |
| CC1(C)CC(NC2CCC3(CC2)OOC2(O3)C3CC4CC(C3)CC2C4)CC(C)(C)N1 (stereo not drawn) [OZ171] | – | – | 9.0 | 98 | 7.0 | 85 | 9.7 | 99.94 | 1.4 (≈ 0.00334 µM) | 1.3 (≈ 0.00311 µM) | – | – | – | – | – | – | – | – |
| N=C(N)NN=C1CCC2(CC1)OOC1(O2)C2CC3CC(C2)CC1C3 (stereo not drawn) [OZ172] | – | – | 8.0 | 68 | 10.3 | 82 | 10.3 | 100 | 5 (≈ 0.015 µM) | 3.5 (≈ 0.0105 µM) | – | – | – | – | – | – | – | – |
| COCC(=O)N(Cc1ccccc1)C1CCC2(CC1)OOC1(O2)C2CC3CC(C2)CC1C3 (stereo not drawn) [OZ173] | – | – | 7.0 | 15 | 6.7 | 0 | 9.7 | 80 | 32 (≈ 0.0725 µM) | 58 (≈ 0.131 µM) | – | – | – | – | – | – | – | – |
| COCC(=O)N(C1CCCCC1)C1CCC2(CC1)OOC1(O2)C2CC3CC(C2)CC1C3 (stereo not drawn) [OZ174] | – | – | 6.7 | 0 | 7.3 | 15 | 10.3 | 90 | 34 (≈ 0.0784 µM) | 27 (≈ 0.0623 µM) | – | – | – | – | – | – | – | – |
| O=C(O)c1ccc(OC[C@H]2CC[C@]3(CC2)OOC2(O3)C3CC4CC(C3)CC2C4)cc1 (stereo partly drawn) [OZ176] | – | – | 7.0 | 11 | 7.7 | 18 | 7.0 | 24 | 35 (≈ 0.0844 µM) | 25 (≈ 0.0603 µM) | – | – | – | – | – | – | – | – |
| CS(=O)(=O)c1ccc([C@H]2CC[C@]3(CC2)OOC2(O3)C3CC4CC(C3)CC2C4)cc1 (stereo partly drawn) [OZ178] | – | – | 7.3 | 32 | 7.3 | 23 | 10.0 | 31 | 27 (≈ 0.0645 µM) | 21 (≈ 0.0502 µM) | – | – | – | – | – | – | – | – |
| CC1(C)COC(c2ccc([C@H]3CC[C@]4(CC3)OOC3(O4)C4CC5CC(C4)CC3C5)cc2)=N1 (stereo partly drawn) [OZ180] | – | – | – | – | – | – | – | – | – | – | 2.8 (≈ 0.0064 µM) | 3.7 (≈ 0.00846 µM) | 13.7 | 99.91 | 12.7 | 97 | 10.3 | 65 |
| O=C(OCCn1ccnc1)C1CCC2(CC1)OOC1(O2)C2CC3CC(C2)CC1C3 (stereo not drawn) [OZ182] | – | – | 8.0 | 91 | 7.3 | 96 | 7.7 | 95 | 5.5 (≈ 0.0137 µM) | 4.5 (≈ 0.0112 µM) | – | – | – | – | – | – | – | – |
| O=C(NO)c1ccc([C@H]2CC[C@]3(CC2)OOC2(O3)C3CC4CC(C3)CC2C4)cc1 (stereo partly drawn) [OZ183] | – | – | 6.0 | 65 | 6.0 | 19 | 8.3 | 81 | 2.1 (≈ 0.00526 µM) | 0.8 (≈ 0.002 µM) | – | – | – | – | – | – | – | – |
| C1CC1CNC1CCC2(CC1)OOC1(O2)C2CC3CC(C2)CC1C3 (stereo not drawn) [OZ184] | – | – | 6.7 | 54 | 7.0 | 59 | 8.7 | 97 | 1.4 (≈ 0.0042 µM) | 1 (≈ 0.003 µM) | – | – | – | – | – | – | – | – |
| C1C2CC3CC1CC(C2)C31OOC2(CCC(NC3CC3)CC2)O1 (stereo not drawn) [OZ185] | – | – | 7.7 | 86 | 6.7 | 56 | 10.7 | 99.96 | 1.4 (≈ 0.00438 µM) | 1.1 (≈ 0.00344 µM) | – | – | – | – | – | – | – | – |
| COCC(=O)N[C@H]1CC[C@]2(CC1)OOC1(O2)C2CC3CC(C2)CC1C3 (stereo partly drawn) [OZ186] | – | – | 8.0 | 87 | 9.0 | 96 | 8.0 | 67 | > 10 | > 10 | – | – | – | – | – | – | – | – |
| CN(C)C(=O)N[C@H]1CC[C@]2(CC1)OOC1(O2)C2CC3CC(C2)CC1C3 (stereo partly drawn) [OZ187] | – | – | 7.7 | 77 | 10.0 | 94 | 7.0 | 77 | 6.8 (≈ 0.0194 µM) | 4 (≈ 0.0114 µM) | – | – | – | – | – | – | – | – |
| CN(C)S(=O)(=O)N1CCC2(CC1)OOC1(O2)C2CC3CC(C2)CC1C3 (stereo not drawn) [OZ190, Adamantane-2-spiro-3′-8′-(dimethylaminosulfonyl)-1′,2′,4′-trioxa-8′-azaspiro[4.5]decane] | – | – | 8.7 | 98 | 7.7 | 78 | 5.7 | 2 | 1 (≈ 0.00268 µM) | 0.16 (≈ 0.00043 µM) | – | – | – | – | – | – | – | – |
| N=C(N)N1CCC2(CC1)OOC1(O2)C2CC3CC(C2)CC1C3 (stereo not drawn) [OZ191, Adamantane-2-spiro-3′-8′-amidino-1′,2′,4′-trioxa-8′-azaspiro[4.5]decane hydrochloride] | – | – | 5.7 | 7 | 5.7 | 5 | 6.0 | 17 | > 10 | 6 | – | – | – | – | – | – | – | – |
